Laboratory results reported in paper PMC3961306, “Comparison of the Cancer Gene Targeting and Biochemical Selectivities of All Targeted Kinase Inhibitors Approved for Clinical Use” (PLoS ONE, 2014).

Key:
Assay in all cases: Kinase profiling in a biochemical assay panel (mobility shift assays and ELISA), %-inhibition at 1 μM; selectivity entropy
[1] = biological target: panel of more than 300 wild-type and mutant kinases (313 kinase panel) (Homo sapiens, UniProt P07947)
[2] = biological target: panel of more than 300 wild-type and mutant kinases (313 kinase panel) (Homo sapiens, UniProt P08581)
[3] = biological target: panel of more than 300 wild-type and mutant kinases (313 kinase panel) (Homo sapiens, UniProt P22455, V550L); details: kinase FGFR4(V550L); compound at 1 μM
[4] = biological target: T1, panel of more than 300 wild-type and mutant kinases (313 kinase panel) (Homo sapiens, UniProt P36888)
T1 sequence (P36888 27-993): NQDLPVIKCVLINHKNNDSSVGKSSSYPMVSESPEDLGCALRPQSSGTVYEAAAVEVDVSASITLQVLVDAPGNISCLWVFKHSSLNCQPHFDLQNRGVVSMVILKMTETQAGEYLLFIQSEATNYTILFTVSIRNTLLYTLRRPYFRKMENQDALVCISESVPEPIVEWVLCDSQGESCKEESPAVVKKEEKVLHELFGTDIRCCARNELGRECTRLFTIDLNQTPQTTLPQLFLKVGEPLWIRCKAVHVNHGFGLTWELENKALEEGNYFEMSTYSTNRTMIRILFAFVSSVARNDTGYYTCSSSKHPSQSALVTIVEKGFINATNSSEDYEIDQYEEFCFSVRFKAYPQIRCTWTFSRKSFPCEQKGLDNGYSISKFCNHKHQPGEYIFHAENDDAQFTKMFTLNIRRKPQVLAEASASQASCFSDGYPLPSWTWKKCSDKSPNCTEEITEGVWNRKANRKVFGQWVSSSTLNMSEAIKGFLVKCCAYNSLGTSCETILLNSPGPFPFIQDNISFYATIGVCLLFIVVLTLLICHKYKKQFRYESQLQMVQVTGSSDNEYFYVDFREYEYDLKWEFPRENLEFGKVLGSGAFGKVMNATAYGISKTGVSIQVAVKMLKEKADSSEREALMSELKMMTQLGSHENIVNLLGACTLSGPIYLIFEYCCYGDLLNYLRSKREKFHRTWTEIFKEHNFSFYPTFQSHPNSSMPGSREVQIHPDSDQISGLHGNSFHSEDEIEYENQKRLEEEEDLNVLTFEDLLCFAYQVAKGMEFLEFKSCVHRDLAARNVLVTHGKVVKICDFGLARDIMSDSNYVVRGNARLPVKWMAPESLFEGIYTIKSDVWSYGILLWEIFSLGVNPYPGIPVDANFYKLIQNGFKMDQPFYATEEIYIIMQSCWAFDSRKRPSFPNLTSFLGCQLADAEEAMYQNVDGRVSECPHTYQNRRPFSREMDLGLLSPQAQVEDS

[5] = biological target: panel of more than 300 wild-type and mutant kinases (313 kinase panel) (Homo sapiens, UniProt P78362)
[6] = biological target: T2, panel of more than 300 wild-type and mutant kinases (313 kinase panel) (Homo sapiens, UniProt Q9UF33)
T2 sequence (Q9UF33 23-1036): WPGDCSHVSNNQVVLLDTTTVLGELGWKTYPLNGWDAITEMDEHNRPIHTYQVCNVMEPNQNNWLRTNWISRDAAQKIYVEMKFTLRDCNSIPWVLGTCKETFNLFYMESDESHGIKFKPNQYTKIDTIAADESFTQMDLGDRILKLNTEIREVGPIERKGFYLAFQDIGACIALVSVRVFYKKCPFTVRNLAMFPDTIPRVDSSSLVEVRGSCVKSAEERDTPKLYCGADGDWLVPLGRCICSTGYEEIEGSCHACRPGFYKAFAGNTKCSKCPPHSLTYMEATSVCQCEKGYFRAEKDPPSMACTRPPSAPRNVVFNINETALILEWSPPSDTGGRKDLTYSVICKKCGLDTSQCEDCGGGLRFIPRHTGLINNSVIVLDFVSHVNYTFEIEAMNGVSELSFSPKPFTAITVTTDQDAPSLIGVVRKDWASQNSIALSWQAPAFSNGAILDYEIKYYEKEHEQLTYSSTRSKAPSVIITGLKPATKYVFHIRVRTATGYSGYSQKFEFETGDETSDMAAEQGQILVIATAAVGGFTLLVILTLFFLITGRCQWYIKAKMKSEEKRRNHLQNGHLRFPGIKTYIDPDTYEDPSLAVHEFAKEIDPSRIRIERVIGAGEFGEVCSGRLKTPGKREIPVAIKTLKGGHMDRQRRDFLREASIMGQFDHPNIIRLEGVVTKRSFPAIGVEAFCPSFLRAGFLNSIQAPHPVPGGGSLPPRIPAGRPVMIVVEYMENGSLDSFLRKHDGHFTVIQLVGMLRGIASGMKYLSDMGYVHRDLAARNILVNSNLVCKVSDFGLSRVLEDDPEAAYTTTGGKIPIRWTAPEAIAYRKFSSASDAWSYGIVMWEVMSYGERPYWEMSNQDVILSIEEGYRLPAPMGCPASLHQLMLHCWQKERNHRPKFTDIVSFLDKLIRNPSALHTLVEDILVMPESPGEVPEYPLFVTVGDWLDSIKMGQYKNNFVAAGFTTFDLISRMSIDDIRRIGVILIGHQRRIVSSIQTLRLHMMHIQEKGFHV

[7] = biological target: panel of more than 300 wild-type and mutant kinases (313 kinase panel) (Homo sapiens, UniProt Q9UM73, F1174L)
[8] = biological target: panel of more than 300 wild-type and mutant kinases (313 kinase panel) (Homo sapiens, UniProt P17948)
[9] = biological target: panel of more than 300 wild-type and mutant kinases (313 kinase panel) (Homo sapiens, UniProt Q9UPE1)
[10] = kinase ALK(F1174L), 1 μM compound

Row | Structure (SMILES) | %-inhibition of YES ([1]; kinase YES, compound at 1 μM) [%] | %-inhibition of MET ([2]; kinase MET, compound at 1 μM) [%] | %-inhibition of FGFR4(V550L) [3] [%] | %-inhibition of FLT3 ([4]; kinase FLT3, compound at 1 μM) [%] | %-inhibition of SRPK2 ([5]; kinase SRPK2, 1 μM) [%] | %-inhibition of EPHA6 ([6]; kinase EPHA6, compound at 1 μM) [%] | %-inhibition, ALK(F1174L) [7, 10] [%] | %-inhibition of FLT1 ([8]; kinase FLT1, compound at 1 μM) [%] | %-inhibition of MSSK1 ([9]; kinase MSSK1, 1 μM) [%] | %-inhibition of YES ([1]; 1 µM) [%] | %-inhibition of MET ([2]; 1 µM) [%] | %-inhibition of FLT1 ([8]; 1 µM) [%] | %-inhibition of SRPK2 ([5]; 1 µM) [%] | %-inhibition of EPHA6 ([6]; 1 µM) [%] | %-inhibition, ALK(F1174L) ([7]; 1 µM) [%] | %-inhibition of MSSK1 ([9]; 1 µM) [%] | %-inhibition of FLT3 ([4]; 1 µM) [%]
1 | COc1cc(Nc2c(C#N)cnc3cc(OCCCN4CCN(C)CC4)c(OC)cc23)c(Cl)cc1Cl [bosutinib] | 97 | 10 | -7 | 77 | -9 | 102 | 71 |  |  |  |  |  |  |  |  |  | 
2 | COc1cc2nccc(Oc3ccc(NC(=O)C4(C(=O)Nc5ccc(F)cc5)CC4)cc3)c2cc1OC [cabozantinib] | 90 |  | -1.35 | 91 | 0.2 | 100 | 6.54 | 99 | 32 |  |  |  |  |  |  |  | 
3 | C[C@@H](Oc1cc(-c2cnn(C3CCNCC3)c2)cnc1N)c1c(Cl)ccc(F)c1Cl [crizotinib] | 65 |  | 0.45 |  | -2.33 | 100 |  | 53 |  |  |  |  |  |  |  |  | 
4 | CC(C)(C)c1nc(-c2cccc(NS(=O)(=O)c3c(F)cccc3F)c2F)c(-c2ccnc(N)n2)s1 [dabrafenib] |  | 27 | -1.08 | 41 | 11 | 88 |  | 62 | 2.55 |  |  |  |  |  |  |  | 
5 | Cc1nc(Nc2ncc(C(=O)Nc3c(C)cccc3Cl)s2)cc(N2CCN(CCO)CC2)n1 [dasatinib] |  |  |  |  |  |  |  |  | -4.63 |  |  |  |  |  |  |  | 
6 | C#Cc1cccc(Nc2ncnc3cc(OCCOC)c(OCCOC)cc23)c1 [erlotinib] |  |  |  |  |  |  |  |  |  | 51 | 13 | 70 | 4.47 | 69 | 41 | -5 | 
7 | O=S(=O)(c1cccc2cnccc12)N1CCCNCC1 [fasudil] | 1.18 | -4 |  | 22 | -1.36 | 6 | -4 | -0.73 | -5.56 |  |  |  |  |  |  |  | 
8 | CS(=O)(=O)CCNCc1ccc(-c2ccc3ncnc(Nc4ccc(OCc5cccc(F)c5)c(Cl)c4)c3c2)o1 [lapatinib] | 26 | 0 |  | -3.74 | 4.47 | 20 | 1.61 |  | -3 |  |  |  |  |  |  |  | 
9 | Cc1cn(-c2cc(NC(=O)c3ccc(C)c(Nc4nccc(-c5cccnc5)n4)c3)cc(C(F)(F)F)c2)cn1 [nilotinib] | 44 | -9 |  |  | -0.605 | 30 | -45 | 32 | -17 |  |  |  |  |  |  |  | 60
10 | Cc1ccc(Nc2nccc(N(C)c3ccc4c(C)n(C)nc4c3)n2)cc1S(N)(=O)=O [pazopanib] | 68 |  |  |  | -4 | 24 | 26 | 100 | -2 |  |  |  |  |  |  |  | 
11 | N#CC[C@H](C1CCCC1)n1cc(-c2ncnc3[nH]ccc23)cn1 [ruxolitinib] |  |  | 16 |  | 9 | -1.06 |  | 11 | 6 | 24 | -3.54 |  |  |  |  |  | 18
12 | CCN(CC)CCNC(=O)c1c(C)[nH]c(/C=C2\C(=O)Nc3ccc(F)cc32)c1C [sunitinib] | 99 |  |  |  |  |  |  | 98 |  |  |  |  |  |  |  |  | 
13 | COc1cc2c(Nc3ccc(Br)cc3F)ncnc2cc1OCC1CCN(C)CC1 [vandetanib] | 100 |  | -4.72 | 90 | -9 |  |  |  | -4.37 |  |  |  |  |  |  |  | 
